The target in one data set is IRF5. Particulars: ASO.
Another data set deals with HBV. Particulars: ASO.

Values joined by “and” are separate entries in the source; they are usually repeats but may differ in a detail not shown here. Identical values can stand only once. After the bases stand the sugars from the 5' end (letter, count) and the backbone: PS all phosphorothioate, else s phosphorothioate and o phosphodiester by linkage. HELM strings list units from the 5' end as sugar, base in round brackets, then linkage (d deoxyribose, r ribose, m 2'-O-methyl, p phosphodiester). Methylation of C is not given here. [moe] = 2'-O-(2-methoxyethyl) (MOE); [cEt] = constrained ethyl (cEt); [sp] = phosphorothioate linkage; e = 2'-O-(2-methoxyethyl) (MOE); k = constrained ethyl (cEt); d = 2'-deoxy (DNA)

The substance “GTTCTTGGACTCTCAA (sugars kkdddddddddkekek, PS)” displayed a target mRNA inhibition with IRF5 (KARPAS-229, 4 µM) of 31%.
Turning to “RNA1{[moe](A)[sp].[cEt](A)[sp].[cEt](G)[sp].d(A)[sp].d(A)[sp].d(G)[sp].d(A)[sp].d(T)[sp].d(G)[sp].d(A)[sp].d(G)[sp].d(G)[sp].d(C)[sp].[cEt](A)[sp].[cEt](T)[sp].[moe](A)}$$$$V2.0”, the target mRNA inhibition in the data set with HBV (HepG2, 0.07 µM) is 62% and 65%.
In the case of “RNA1{[moe](A)[sp].[cEt](A)[sp].[moe](G)[sp].[cEt](C)[sp].d(G)[sp].d(A)[sp].d(A)[sp].d(G)[sp].d(T)[sp].d(G)[sp].d(C)[sp].d(A)[sp].d(C)[sp].[moe](A)[sp].[moe](C)[sp].[moe](G)[sp].[moe](G)}$$$$V2.0”, the target mRNA inhibition with HBV (HepG2, 0.009375 µM) amounted to 29%; in the data set with HBV (HepG2, 0.01875 µM) it was 30%; with HBV (HepG2, 0.0375 µM), 41%; in the data set with HBV (HepG2, 0.075 µM), 71%; in the data set with HBV (HepG2, 0.15 µM), 86%; in the data set with HBV (HepG2, 0.3 µM), 88%.
“RNA1{[moe](A)[sp].[cEt](A)[sp].d(C)[sp].d(C)[sp].d(A)[sp].d(C)[sp].d(T)[sp].d(G)[sp].d(A)[sp].d(A)[sp].d(C)[sp].d(A)[sp].[cEt](A)[sp].[moe](A)[sp].[cEt](T)[sp].[moe](G)}$$$$V2.0”: the target mRNA inhibition with HBV (HepG2, 0.07 µM) is 55% and 38%.
On the same count and under the same terms, as for “RNA1{[moe](A)[sp].[cEt](A)[sp].d(C)[sp].d(T)[sp].d(G)[sp].d(G)[sp].d(A)[sp].d(G)[sp].d(C)[sp].d(C)[sp].d(A)[sp].d(C)[sp].[cEt](C)[sp].[moe](A)[sp].[cEt](G)[sp].[moe](C)}$$$$V2.0”, the figure is 65% and 53%; as for “RNA1{[moe](A)[sp].[cEt](C)[sp].[cEt](A)[sp].d(A)[sp].d(A)[sp].d(T)[sp].d(G)[sp].d(G)[sp].d(C)[sp].d(A)[sp].d(C)[sp].d(T)[sp].d(A)[sp].[cEt](G)[sp].[cEt](T)[sp].[moe](A)}$$$$V2.0”, 67% and 61%.
Turning to “RNA1{[moe](A)[sp].[cEt](C)[sp].d(C)[sp].d(A)[sp].d(A)[sp].d(T)[sp].d(T)[sp].d(T)[sp].d(A)[sp].d(T)[sp].d(G)[sp].d(C)[sp].[cEt](C)[sp].[moe](T)[sp].[cEt](A)[sp].[moe](C)}$$$$V2.0”, the target mRNA inhibition with HBV (HepG2, 0.07 µM) is 40% and 51%.
TAGTGTCATGGAATTT (sugars k3 d10 k3, PS): in the data set with IRF5 (KARPAS-229, 4 µM), the target mRNA inhibition came to 38%.
Still for that read-out and setting: the value for “TCACCACTGTGTACCC (sugars kkdddddddddkekek, PS)” was 0%; that for “TCACCACTGTGTACCC (sugars kkddddddddkekekk, PS)” was 0%.
As to “TCACCACTGTGTACCC (sugars kkkddddddddkekek, PS)”, the target mRNA inhibition with IRF5 (KARPAS-229, 4 µM) is 0%.
Still for that read-out and setting: as for “TCCAATTTTGCATTCC (sugars kkkdddddddddkeke, PS)”, the figure is 14%; as for “TCCAATTTTGCATTCC (sugars kkkddddddddkdkdk, PS)”, 32%; as for TCTGCAGGGAGTCAGA (sugars k3 d10 k3, PS), 0%.
Same read-out and setting: as for “TCTGGCCCTTTTGGAA (sugars kkddddddddkekekk, PS)”, the figure is 0%.
In the case of TGAATTTTGTGACTGT (sugars k3 d10 k3, PS), the target mRNA inhibition was 32% in the data set with IRF5 (KARPAS-229, 0.44444 µM); 59% with IRF5 (KARPAS-229, 1.33333 µM); 64% and 70% with IRF5 (KARPAS-229, 4 µM); 81% with IRF5 (KARPAS-229, 12 µM).
The substance TGAGACGAGCAAAGGG (sugars k3 d10 k3, PS) gave a target mRNA inhibition with IRF5 (KARPAS-229, 4 µM) of 22%.
“TGAGTCATGGAGCTGAG (sugars k2 d9 e3 k2 d1, PS)” came in with a target mRNA inhibition in the data set with IRF5 (KARPAS-229, 4 µM) of 16%.
On the same count and under the same terms, as for TGAGTCATGGGCTGAG (sugars k3 d10 k3, PS), the figure is 0%; as for “TGAGTCATGGGCTGAG (sugars kkddddddddddkeke, PS)”, 0%.
Still for that read-out and setting: as for “TGAGTCATGGGCTGAG (sugars kkkdddddddddkeke, PS)”, the figure is 17%; as for “TGAGTCTCAAACCAGG (sugars k3 d9 k3 e1, PS)”, 0%.
Same read-out and setting: as for TGAGTCTCAAACCAGG (sugars k3 d10 k3, PS), the figure is 16%; as for “TGCACTGACACAGGCG (sugars k3 d9 k3 e1, PS)”, 0%; as for “TGCACTGACACAGGCG (sugars kkddddddddddkeke, PS)”, 16%.
For “TGCACTGACACAGGCG (sugars kkdddddddddkdkdk, PS)”, the target mRNA inhibition with IRF5 (KARPAS-229, 4 µM) came out at 0%.
For the substance “TGTCTAGTGTCATGGA (sugars k3 d9 k3 e1, PS)”, the target mRNA inhibition with IRF5 (KARPAS-229, 4 µM) was 39%.
The same measure, in the same setting: as for “TGTCTAGTGTCATGGA (sugars kkdddddddddkdkdk, PS)”, the figure is 40%.
Same read-out and setting: as for “TTATCTCCGTCCTGGC (sugars k3 d9 k3 e1, PS)”, the figure is 0%.
In the case of TTATTTCTGCTCCAGG (sugars k3 d10 k3, PS), the target mRNA inhibition was 51% with IRF5 (KARPAS-229, 0.44444 µM); 66% with IRF5 (KARPAS-229, 1.33333 µM); 55% and 77% with IRF5 (KARPAS-229, 4 µM); 84% with IRF5 (KARPAS-229, 12 µM).
As for “TTATTTCTGCTCCAGG (sugars kddddddddddkekek, PS)”, the target mRNA inhibition in the data set with IRF5 (KARPAS-229, 4 µM) is 0%.
Regarding “TTATTTCTGCTCCAGG (sugars kkdddddddddkekek, PS)”, the target mRNA inhibition with IRF5 (KARPAS-229, 4 µM) turned out to be 9%.
Substance TTCTGCAGGGAGTCAG (sugars k3 d10 k3, PS) displayed a target mRNA inhibition with IRF5 (KARPAS-229, 4 µM) of 0%.
Same read-out and setting: as for “TTGTCTAGTGTCATGG (sugars kdddddddddkekeke, PS)”, the figure is 8%; as for “TTGTCTAGTGTCATGG (sugars kkdddddddddkekek, PS)”, 24%; as for TTTCTTGTCTAGTGTC (sugars k3 d10 k3, PS), 53%.
The same measure, in the same setting: the value for TTTGCTCTAAACCATT (sugars k3 d10 k3, PS) was 2%.
